Assay results: ChEMBL document CHEMBL5678804 (Cancer Cell, 2011)
Active and inactive are the calls of the source. The calls are words filed in the database; no cut-off is given here.

Columns and labels:
[1] = target: Serine/threonine-protein kinase DCLK2 (Homo sapiens, UniProt Q8N568); assay: Inhibition of human wild type DCamKL2 using RBER-CHKtide as substrate preincubated for 2 hrs followed by ATP addition and measured every 2 mins for […] by spectrophotometric analysis
[2] = target: Protein kinase C alpha type (Homo sapiens, UniProt P17252); assay: Inhibition of human wild type PKC alpha using 3xChocktide-PKC(19to 31) as substrate preincubated for 2 hrs followed by ATP addition and measured every 2 mins for […] by spectrophotometric analysis
[3] = target: MAP kinase-activated protein kinase 2 (Homo sapiens, UniProt P49137); assay: Inhibition of human MK2 preincubated for 2 hrs followed by ATP addition and measured every 2 mins for […] by spectrophotometric analysis
[4] = tested on: Tyrosine-protein kinase ABL1 (Homo sapiens), P00519 [T315I]; details: time 2.0 hrs
[5] = target: Protein kinase C gamma type (Homo sapiens, UniProt P05129); assay: Inhibition of human wild type PKC gamma using 3xChocktide-PKC(19to 31) as substrate preincubated for 2 hrs followed by ATP addition and measured every 2 mins for […] by spectrophotometric analysis
[6] = tested on: BaF3; assay: Antileukemic activity against mouse BaF3 cells harbouring BCR-ABL1 T315I mutant non-transduced with 5-FU treated bone marrow xenografted in Balb/c mouse assessed as alteration in B-lymphoid leukemia at 60 mg/kg, po administered twice daily; assay type: functional, organism-based
[7] = target: Serine/threonine-protein kinase ULK2 (Homo sapiens, UniProt Q8IYT8); assay: Inhibition of human wild type ULK2 using Casein as substrate preincubated for 2 hrs followed by ATP addition and measured every 2 mins for […] by spectrophotometric analysis
[8] = target: Serine/threonine-protein kinase BRSK1 (Homo sapiens, UniProt Q8TDC3); assay: Inhibition of human wild type BRSK1 using RBER-CHKtide as substrate preincubated for 2 hrs followed by ATP addition and measured every 2 mins for […] by spectrophotometric analysis
[9] = target: Myosin-IIIb (Homo sapiens, UniProt Q8WXR4); assay: Inhibition of human MYO3B preincubated for 2 hrs followed by ATP addition and measured every 2 mins for […] by spectrophotometric analysis
[10] = target: Serine/threonine-protein kinase N1 (Homo sapiens, UniProt Q16512); assay: Inhibition of human wild type PKN1 using RBER-CHKtide as substrate preincubated for 2 hrs followed by ATP addition and measured every 2 mins for […] by spectrophotometric analysis
Serine/threonine-protein kinase N1, sequence (Q16512 whole entry): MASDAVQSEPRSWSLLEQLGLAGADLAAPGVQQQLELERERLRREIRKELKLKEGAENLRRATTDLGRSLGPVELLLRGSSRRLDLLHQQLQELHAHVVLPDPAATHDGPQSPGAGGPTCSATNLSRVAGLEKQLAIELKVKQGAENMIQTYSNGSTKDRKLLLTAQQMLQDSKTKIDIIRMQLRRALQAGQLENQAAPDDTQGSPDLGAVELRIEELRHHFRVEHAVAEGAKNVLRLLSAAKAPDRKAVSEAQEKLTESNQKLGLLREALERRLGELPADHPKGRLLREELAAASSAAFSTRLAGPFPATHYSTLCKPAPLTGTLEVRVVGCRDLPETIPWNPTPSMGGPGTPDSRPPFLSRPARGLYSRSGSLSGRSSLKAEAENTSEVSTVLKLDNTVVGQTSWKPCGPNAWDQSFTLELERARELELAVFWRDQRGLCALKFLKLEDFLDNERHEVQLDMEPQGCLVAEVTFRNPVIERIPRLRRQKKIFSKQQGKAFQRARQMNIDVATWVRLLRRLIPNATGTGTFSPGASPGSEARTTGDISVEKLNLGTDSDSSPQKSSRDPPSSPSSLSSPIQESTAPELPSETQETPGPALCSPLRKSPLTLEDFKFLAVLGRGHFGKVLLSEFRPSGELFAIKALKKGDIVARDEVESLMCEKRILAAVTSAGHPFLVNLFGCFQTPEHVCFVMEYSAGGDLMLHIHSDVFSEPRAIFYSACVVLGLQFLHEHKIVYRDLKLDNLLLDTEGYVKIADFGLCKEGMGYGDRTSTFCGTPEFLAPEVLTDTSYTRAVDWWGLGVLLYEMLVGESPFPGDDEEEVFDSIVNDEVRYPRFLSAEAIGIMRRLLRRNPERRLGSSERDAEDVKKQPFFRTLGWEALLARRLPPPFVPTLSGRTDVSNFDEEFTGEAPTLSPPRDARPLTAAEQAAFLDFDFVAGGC

[11] = tested on: BaF3; assay: Antitumor activity against mouse BaF3 cells harbouring BCR-ABL1 T315I mutant xenografted in Balb/c mouse model assessed as prolongation of animal survival at 100 mg/kg, po administered once daily for 21 days; assay type: functional, organism-based; details: time 21.0 day
[12] = target: CDK1/Cyclin A (Homo sapiens, UniProt P06493); assay: Inhibition of human wild type CDK1/cyclinA using RBER-CHKtide as substrate preincubated for 2 hrs followed by ATP addition and measured every 2 mins for […] by spectrophotometric analysis; assay type: protein-complex assay
[13] = target: Serine/threonine-protein kinase pim-1 (Homo sapiens, UniProt P11309); assay: Inhibition of human wild type PIM1 using RBER-GSK3(14to 27) as substrate preincubated for 2 hrs followed by ATP addition and measured every 2 mins for […] by spectrophotometric analysis
[14] = target: Interleukin-1 receptor-associated kinase 4 (Homo sapiens, UniProt Q9NWZ3); assay: Inhibition of human wild type IRAK4 using RB-CTF as substrate preincubated for 2 hrs followed by ATP addition and measured every 2 mins for […] by spectrophotometric analysis
Interleukin-1 receptor-associated kinase 4, sequence (Q9NWZ3 whole entry): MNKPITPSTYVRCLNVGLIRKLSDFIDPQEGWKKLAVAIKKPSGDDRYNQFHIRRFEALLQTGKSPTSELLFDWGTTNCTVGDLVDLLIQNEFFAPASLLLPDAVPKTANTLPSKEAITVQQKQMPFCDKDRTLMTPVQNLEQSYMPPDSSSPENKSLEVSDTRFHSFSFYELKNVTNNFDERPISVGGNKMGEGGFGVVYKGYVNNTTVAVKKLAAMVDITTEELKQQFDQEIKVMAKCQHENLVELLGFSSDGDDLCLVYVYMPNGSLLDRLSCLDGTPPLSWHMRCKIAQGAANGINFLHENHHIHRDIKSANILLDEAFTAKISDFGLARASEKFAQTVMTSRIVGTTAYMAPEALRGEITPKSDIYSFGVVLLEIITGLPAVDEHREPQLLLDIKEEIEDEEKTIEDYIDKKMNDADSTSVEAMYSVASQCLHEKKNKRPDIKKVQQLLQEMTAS

[15] = target: Serine/threonine-protein kinase TAO1 (Homo sapiens, UniProt Q7L7X3); assay: Inhibition of human TAOK1 preincubated for 2 hrs followed by ATP addition and measured every 2 mins for […] by spectrophotometric analysis
[16] = target: Serine/threonine-protein kinase VRK1 (Homo sapiens, UniProt Q99986); assay: Inhibition of human wild type VRK1 using RBER-CHKtide as substrate preincubated for 2 hrs followed by ATP addition and measured every 2 mins for […] by spectrophotometric analysis
[17] = target: cGMP-dependent protein kinase 1 (Homo sapiens, UniProt Q13976); assay: Inhibition of human wild type PKG1 alpha using 3xChocktide-PKC(19to 31) as substrate preincubated for 2 hrs followed by ATP addition and measured every 2 mins for […] by spectrophotometric analysis
[18] = target: Serine/threonine-protein kinase STK11 (Homo sapiens, UniProt Q15831); assay: Inhibition of human wild type LKB1 using RB-CTF as substrate preincubated for 2 hrs followed by ATP addition and measured every 2 mins for […] by spectrophotometric analysis
[19] = target: Proto-oncogene tyrosine-protein kinase ROS (Homo sapiens, UniProt P08922); assay: Inhibition of human wild type ROS using Poly(Ala,Glu,Lys,Tyr)6:2:5:1 as substrate preincubated for 2 hrs followed by ATP addition and measured every 2 mins for […] by spectrophotometric analysis
Proto-oncogene tyrosine-protein kinase ROS, sequence (P08922 whole entry): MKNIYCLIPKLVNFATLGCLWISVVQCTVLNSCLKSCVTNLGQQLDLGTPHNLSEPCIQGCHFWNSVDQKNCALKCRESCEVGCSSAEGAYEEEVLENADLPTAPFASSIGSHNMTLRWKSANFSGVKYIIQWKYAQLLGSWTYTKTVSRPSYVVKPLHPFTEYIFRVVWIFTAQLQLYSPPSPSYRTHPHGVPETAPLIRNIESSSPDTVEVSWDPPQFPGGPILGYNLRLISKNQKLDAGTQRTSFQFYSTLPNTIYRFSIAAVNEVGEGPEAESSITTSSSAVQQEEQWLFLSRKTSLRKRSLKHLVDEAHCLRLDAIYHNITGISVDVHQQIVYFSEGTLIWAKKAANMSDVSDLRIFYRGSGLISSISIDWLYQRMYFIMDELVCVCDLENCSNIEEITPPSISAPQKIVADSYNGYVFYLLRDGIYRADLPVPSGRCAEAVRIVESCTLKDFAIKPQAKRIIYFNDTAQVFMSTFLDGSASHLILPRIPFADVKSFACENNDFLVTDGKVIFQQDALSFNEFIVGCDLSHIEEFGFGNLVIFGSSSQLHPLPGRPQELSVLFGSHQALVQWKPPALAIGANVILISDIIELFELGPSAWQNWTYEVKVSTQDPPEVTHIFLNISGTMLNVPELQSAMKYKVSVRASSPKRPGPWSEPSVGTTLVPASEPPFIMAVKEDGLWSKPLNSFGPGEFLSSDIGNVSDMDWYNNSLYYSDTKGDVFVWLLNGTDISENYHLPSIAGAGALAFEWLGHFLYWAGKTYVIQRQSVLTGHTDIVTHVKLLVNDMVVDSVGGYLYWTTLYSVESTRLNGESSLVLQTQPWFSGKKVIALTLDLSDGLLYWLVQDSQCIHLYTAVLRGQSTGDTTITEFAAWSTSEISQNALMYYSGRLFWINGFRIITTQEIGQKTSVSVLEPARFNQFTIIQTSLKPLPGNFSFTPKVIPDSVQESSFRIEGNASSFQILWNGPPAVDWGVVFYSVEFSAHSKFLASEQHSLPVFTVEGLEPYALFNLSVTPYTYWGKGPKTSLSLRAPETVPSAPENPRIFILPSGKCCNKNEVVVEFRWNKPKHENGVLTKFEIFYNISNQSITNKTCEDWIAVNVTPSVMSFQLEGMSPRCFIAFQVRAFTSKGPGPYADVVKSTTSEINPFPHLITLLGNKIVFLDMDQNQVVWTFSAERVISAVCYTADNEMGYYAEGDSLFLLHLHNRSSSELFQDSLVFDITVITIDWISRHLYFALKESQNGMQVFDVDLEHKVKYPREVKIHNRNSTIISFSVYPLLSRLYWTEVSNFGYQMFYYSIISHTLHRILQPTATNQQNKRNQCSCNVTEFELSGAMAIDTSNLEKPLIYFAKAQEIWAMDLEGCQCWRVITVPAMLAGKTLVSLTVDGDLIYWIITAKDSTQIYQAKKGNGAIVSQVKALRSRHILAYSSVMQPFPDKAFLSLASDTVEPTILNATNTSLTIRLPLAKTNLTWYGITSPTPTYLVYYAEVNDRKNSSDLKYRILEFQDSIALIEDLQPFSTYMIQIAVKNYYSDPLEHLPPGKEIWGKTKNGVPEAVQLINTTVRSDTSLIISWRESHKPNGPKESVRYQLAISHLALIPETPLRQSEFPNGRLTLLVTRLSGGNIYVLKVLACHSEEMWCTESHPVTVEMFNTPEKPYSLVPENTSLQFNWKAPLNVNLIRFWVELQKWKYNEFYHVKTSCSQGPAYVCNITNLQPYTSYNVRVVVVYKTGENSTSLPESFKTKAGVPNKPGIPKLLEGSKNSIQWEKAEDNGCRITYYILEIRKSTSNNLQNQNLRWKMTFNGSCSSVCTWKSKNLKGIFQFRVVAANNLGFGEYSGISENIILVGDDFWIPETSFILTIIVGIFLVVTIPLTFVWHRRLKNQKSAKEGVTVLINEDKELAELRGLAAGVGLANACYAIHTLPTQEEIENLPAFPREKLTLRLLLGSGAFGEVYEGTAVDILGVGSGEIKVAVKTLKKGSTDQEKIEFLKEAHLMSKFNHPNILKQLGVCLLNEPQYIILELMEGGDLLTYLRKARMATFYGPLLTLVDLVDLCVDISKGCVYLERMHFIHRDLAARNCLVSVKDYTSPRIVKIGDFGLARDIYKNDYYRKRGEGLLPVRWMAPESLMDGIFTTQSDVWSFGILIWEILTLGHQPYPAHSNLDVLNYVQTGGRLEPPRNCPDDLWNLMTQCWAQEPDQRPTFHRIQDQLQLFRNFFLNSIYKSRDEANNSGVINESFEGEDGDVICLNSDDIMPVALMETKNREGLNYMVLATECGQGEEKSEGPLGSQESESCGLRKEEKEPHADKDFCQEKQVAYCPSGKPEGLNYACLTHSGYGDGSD

[20] = target: Tyrosine-protein kinase ABL1 (Homo sapiens, UniProt P00519); details: Sf9, time 2.0 hrs
[21] = target: Misshapen-like kinase 1 (Homo sapiens, UniProt Q8N4C8); assay: Inhibition of human wild type MINK using RBER-CHKtide as substrate preincubated for 2 hrs followed by ATP addition and measured every 2 mins for […] by spectrophotometric analysis
[22] = target: Bcr/Abl fusion protein (Homo sapiens) (UniProt P00519+P11274); assay: Inhibition of BCR-ABL1 phosphorylation in Ph+ B-ALL patient with […] mutation derived human Leukemia cell at 50 to 1000 nM by immunoblot analysis; assay type: cell-based; details: dose 50-1000 nM
[23] = Inhibition of human wild type PDGFR beta using Poly(Ala,Glu,Lys,Tyr)6:2:5:1 as substrate preincubated for 2 hrs followed by ATP addition and measured every 2 mins for […] by spectrophotometric analysis
[24] = target: Tyrosine-protein kinase receptor TYRO3 (Homo sapiens, UniProt Q06418); assay: Inhibition of human wild type SKY using PolyEY as substrate preincubated for 2 hrs followed by ATP addition and measured every 2 mins for […] by spectrophotometric analysis
[25] = target: Beta-adrenergic receptor kinase 1 (Homo sapiens, UniProt P25098); assay: Inhibition of human wild type GRK2 using Casein as substrate preincubated for 2 hrs followed by ATP addition and measured every 2 mins for […] by spectrophotometric analysis
[26] = target: Serine/threonine-protein kinase A-Raf (Homo sapiens, UniProt P10398); assay: Inhibition of human ARAF preincubated for 2 hrs followed by ATP addition and measured every 2 mins for […] by spectrophotometric analysis
[27] = target: Mitogen-activated protein kinase kinase kinase kinase 2 (Homo sapiens, UniProt Q12851); assay: Inhibition of human wild type GCK using Chocktide-PKC(19t o 31) as substrate preincubated for 2 hrs followed by ATP addition and measured every 2 mins for […] by spectrophotometric analysis
[28] = target: Tyrosine-protein kinase ITK/TSK (Homo sapiens, UniProt Q08881); assay: Inhibition of human wild type ITK using PolyEY as substrate preincubated for 2 hrs followed by ATP addition and measured every 2 mins for […] by spectrophotometric analysis

IC50 [1]: > 1000 nM
IC50 [2]: > 1000 nM
IC50 [3]: > 1000 nM
Kdiss [4]: 1.67e-05 s⁻¹
IC50 [5]: > 1000 nM
IC50 [7]: 320 nM
IC50 [8]: > 1000 nM
IC50 [9]: > 1000 nM
IC50 [10]: > 1000 nM
IC50 [12]: > 1000 nM
IC50 [13]: > 1000 nM
IC50 [14]: > 1000 nM
IC50 [15]: > 1000 nM
IC50 [16]: > 1000 nM
IC50 [17]: > 1000 nM
IC50 [18]: > 1000 nM
IC50 [19]: 340 nM
T1/2 [20]: 6.53 h
IC50 [21]: 11 nM
inhibition [22]: Active
IC50 [23]: 113 nM
IC50 [24]: 87 nM
IC50 [25]: > 1000 nM
IC50 [26]: 230 nM
IC50 [27]: 230 nM
IC50 [28]: 270 nM
Compound: CNC(=O)c1cc(Oc2ccc(NC(=O)Nc3cc(C(C)(C)C)nn3-c3ccc4ncccc4c3)c(F)c2)ccn1 [REBASTINIB]
Activity [6]: Active
Activity [11]: Active
